Each structure is given as a SMILES string. Where two headings read alike, the source gives them in different places.

Assay [1] has as its system HCV genotype-1a variant with glutamine 30 changed to glutamate in the NS5A protein. In kind it is cell-based. As to conditions: test compound titrated with BMS-790052 fixed at 200 nM; genotype 1a Q30E replicon. The procedure, abridged:
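Synergy was assessed by combining several fixed amounts of an NS5A-targeting compound with a titration of the second compound of interest.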

Assay [2] has the same test system. As to conditions: cited from earlier work.
Assay [3] concerns HCV genotype 1a Y93H variant with tyrosine 93 changed to histidine in the NS5A protein. The assay is described as follows: microbe, parasite or virus in culture. In kind it is cell-based. As to conditions: for EC50: Hepatitis C virus. In a few lines:
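In an HCV genotype 1a replicon cell-based assay carrying the NS5A Y93H substitution, BMS-790052 was tested alone and in combination with a fixed amount of a second test compound. The combinations were examined for synergistic activity.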

Assay [4] concerns HCV genotype 1a L31V variant with leucine 31 changed to valine in the NS5A protein. The assay is described as follows: microbe, parasite or virus in culture. In kind it is cell-based. As to conditions: for EC50: Hepatitis C virus.
The mark [5] stands for this setting: compound alone, genotype 1a Q30E replicon, read-out: EC50, titrated singly.
[6] abbreviates: read-out: EC50, titrated singly.
The mark [7] stands for this setting: read-out: EC50 in combination with compound N47.

The term EC50 denotes the concentration that produces a half-maximal response. Consider `CC(C)CC(=O)N[C@H](c1ncc(-c2ccc(-c3ccc(-c4cnc([C@@H](NC(=O)CC(C)C)C(C)C)[nH]4)cc3)cc2)[nH]1)C(C)C` [Compound P-55], for which, in assay [1], the “Fold-Synergistic 1a (Q30E)” value is given as above 100 fold. Further, the “synergistic inhibitory effect with the combination” value in assay [2] (P-55 titrated with BMS-790052 fixed at 200 nM) is above 100 fold. The EC50 in assay [2] (setting [5]) was above 200 nM; in assay [2] (fixed BMS-790052 at 200 nM, genotype 1a Q30E, read-out: EC50 of P-55 in the presence of BMS-790052), around 2 nM.

As for `COC(=O)N[C@H](C(=O)N1CCC[C@H]1c1nc(-c2ccc(-c3ccc(-c4c[nH]c([C@@H]5CCCN5C(=O)[C@@H](NC(=O)OC)C(C)C)n4)cc3)cc2)c[nH]1)C(C)C` [BMS-790052, reference compound], the EC50 in assay [3] (setting [6]) is around 69 nM; in assay [3] (setting [7]), below 0.5 nM; in assay [2] (setting [5]), around 200 nM; in assay [2] (fixed P-55 at 200 nM, genotype 1a Q30E, read-out: EC50 of BMS-790052 in the presence of P-55), around 2 nM; in assay [4] (setting [6]), around 56 nM; in assay [4] (setting [7]), below 0.5 nM. In addition, in assay [3] (titrated with 200 nM compound N47, genotype 1a Y93H), the “synergistic inhibitory effect for the combination” value was above 100 fold. In addition, in assay [2] (BMS-790052 titrated with P-55 fixed at 200 nM), the “reciprocal synergistic inhibitory effect for the combination” value is around 100 fold. In addition, the “synergistic inhibitory effect with the combination” value in assay [4] (titrated with 200 nM compound N47, genotype 1a L31V) was above 100 fold.

Regarding `COC(=O)N[C@H](C(=O)N1CCC[C@H]1c1nc2ccc(-c3cnc(-c4cccc5nc([C@@H]6CCCN6C(=O)[C@@H](NC(=O)OC)C(C)C)[nH]c45)o3)cc2[nH]1)C(C)C`, the “Fold-Synergistic G-1a (Y93H)” value in assay [3] (genotype 1a Y93H replicon, test compound titrated with compound N47 fixed at 200 nM versus singly) is reported as above 100 fold. Moreover, the “Fold-Synergistic G-1a (L31V)” value in assay [4] (genotype 1a L31V replicon, test compound titrated with compound N47 fixed at 200 nM versus singly) is on record as below 10 fold.

These data come from patent US20160158200A1, “Combinations of Hepatitis C Virus Inhibitors” (priority 2013, published 2016).
